Test results published in US10858367B2, “Compounds” (GLAXOSMITHKLINE INTELLECTUAL PROPERTY DEVELOPMENT LIMITED, priority 2017, dated 2020).
Structures can show the parent of a compound that is named as a salt.

How the values were obtained:
[1] = biological target: T1, full length G2019 human LRRK2 (Homo sapiens, UniProt Q5S007, R50H); experiment: Full length G2019 human LRRK2 Inhibition Mass Spectrometry assay; format: biochemical; conditions: 25 nM LRRK2 enzyme, 25 uM LRRKtide, 2 mM ATP; RapidFire mass spectrometry; read-out: pIC50 in the full length G2019 human LRRK2 Inhibition Mass Spectrometry assay (converted)
T1 construct: made in house; host or cells: HEK293 6E cells transduced with BacMam virus (virus generated in Sf9 cells)
From the text: a. Full Length G2019 Human LRRK2 Inhibition Mass Spectrometry Assay
This assay for Leucine Rich Repeat Kinase 2 (LRRK2) inhibition is based on the direct measurement of the peptide ‘LRRKtide’ (LRRKtide: RLGRDKYKT*LRQIRQ and “*” refers to the site of phosphorylation.) and phosphorylated ‘LRRKtide’ using a high throughput RapidFire mass spectrometry assay. Inhibitors are compounds that reduce the conversion of LRRKtide to phospho-LRRKtide.
Human G2019 LRRK2 Plasmid Preparation
Primers used for PCR cloning: • pHTBV-F:SEQ ID No: 1 • LRRK2 wt-F1:SEQ ID No: 2 • LRRK2 wt-R1: SEQ ID No: 3 • LRRK2 wt-F2: SEQ ID No: 4 • LRRK2 wt-R2: SEQ ID No: 5 • LRRK2 wt-F3:SEQ ID No: 6 • pHTBV-R: SEQ ID No: 7 pHTBV1-N-Flag-hu LRRK2 was generated by PCR amplifying the full length LRRK2 sequence with N terminal Flag tag from pcDNA3.1(+)_Human_LRRK2 (NCBI Reference Sequence: NP_940980.3) with the primers described above, and cloned into pHTBV1mcs3 vector between BamHI and KpnI sites.
The G2019 full length Flag-LRRK2 coding sequence is SEQ ID No: 8.
The translated amino acid sequence for human G2019 full length N terminal flag tagged LRRK2 protein is SEQ ID No: 9.
Protein Expression & Purification a) Expression of Flag Tagged Full Length G2019 Human LRRK2
HEK293 6E cells were incubated in a 37° C. incubator with a humidified atmosphere of 5% CO2 on an orbital shaker rotating at 110 rpm. On the day of transduction, the cell viability was higher than 98% and the cell density was in the range of 1×10^6˜1.5×10^6 cells/ml. HEK293 6E cells were centrifuged at 1,000 rpm for 10 min, and then the cells were resuspended in fresh Freestyle 293 expression medium (Invitrogen: 12338) with 0.1% F-68(Invitrogen: 24040-032) but without antibiotics (G418) at density of 1×10^6 cells/ml. BacMam virus with Flag-hu LRRK2 (genotypically normal) gene was centrifuged at 40,000 g for 2 hours, then resuspended in fresh Freestyle 293 expression medium. The resuspended virus was added into the cells in at MOI of 10. The cells were incubated in a 37° C. incubator with a humidified atmosphere of 5% CO2 in air on an orbital shaker rotating at 110 rpm. Cultures were harvested at approximately 48 hours post-transduction by centrifugation at 4,000 rpm for 20 min and pellets were frozen for purification. […]
b) Purification of Flag Tagged Full Length G2019 Human LRRK2
The suspended cells were lysed by sonication on ice for 30 min (2 secs on/4 sec off, 20% amplitude), and centrifuged at 10,000 rpm for 30 minutes at 4° C. The supernatant was incubated with 1 mL per litre of cell culture of anti-Flag magnetic beads (Sigma-Aldrich: M8823) at 4° C. for 3 hours, then the beads were washed by 5 mL (5 column volume) binding buffer (50 mM Tris pH7.5@ 4 C, 500 mM NaCl, 0.5 mM EDTA, 0.1% TritonX-100, 10% glycerol, freshly add 2 mM DTT) for three times. The Flag tagged LRRK2 proteins were eluted by Elution buffer (50 mM Tris pH7.5@ 4 C, 500 mM NaCl, 0.5 mM EDTA, 0.1% TritonX-100, 10% glycerol, freshly add 2 mM DTT, 250 ug/ml Flag peptide (Sigma-Aldrich:F3290)) at 4° C. for 2 hours. Flag peptide was removed by Zeba Spin Desalting Columns, 7K MWCO (Thermo-Fisher: 89893) and the buffer of eluted LRRK2 proteins was exchanged into Storage Buffer (50 mM Tris pH7.5@4 C, 150 mM NaCl, 0.5 mM EDTA, 0.02% Triton X-100, 2 mM DTT and 50% Glycerol) using Amicon Ultra Centrifugal Filter Units (100 kD) (Merck: UFC910096). Fractions containing LRRK2 proteins were pooled, aliquoted and stored at −80° C. Protein concentration was determined by Bradford protein assay, and protein purity was analyzed by NuPAG Novex 4-12% Bis-Tris Protein Gels (Invitrogen: NP0322BOX).
Assay Protocol • 1) A 10 mM test compound was dissolved in 100% DMSO and serially diluted 1 in 4. 100 nL of this dilution series was then added to a 384 well, v bottom polypropylene plate, excluding columns 6 and 18. 100 nL of DMSO was added to columns 6 and 18 as controls wells. […]

[2] = biological target: T2, LRRK2 Ser935 phosphorylation in SH-SY5Y cells over-expressing recombinant full length LRRK2 (Homo sapiens, UniProt Q5S007); experiment: Recombinant cellular LRRK2 AlphaScreen assay; format: cell-based; conditions: human neuroblastoma SH-SY5Y cells, BacMam full length LRRK2, 60 minutes with compound, read-out: pIC50 in the recombinant cellular LRRK2 AlphaScreen assay (converted)
T2 construct: A BacMam virus expressing full length recombinant LRRK2 was purchased from Invitrogen; host or cells: SH-SY5Y human neuroblastoma cells transduced with BacMam LRRK2 virus
Outline: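 SH-SY5Y cells transduced with BacMam full-length human LRRK2 (MOI 50) for 24 h, then treated with compound (top final 10 μM) for 60 min at 37° C. Lysate pSer935 LRRK2 quantified by AlphaScreen using anti-pS935 and total-LRRK2 antibodies. Values from sigmoidal dose-response fit.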

T2 sequence (Q5S007 whole entry): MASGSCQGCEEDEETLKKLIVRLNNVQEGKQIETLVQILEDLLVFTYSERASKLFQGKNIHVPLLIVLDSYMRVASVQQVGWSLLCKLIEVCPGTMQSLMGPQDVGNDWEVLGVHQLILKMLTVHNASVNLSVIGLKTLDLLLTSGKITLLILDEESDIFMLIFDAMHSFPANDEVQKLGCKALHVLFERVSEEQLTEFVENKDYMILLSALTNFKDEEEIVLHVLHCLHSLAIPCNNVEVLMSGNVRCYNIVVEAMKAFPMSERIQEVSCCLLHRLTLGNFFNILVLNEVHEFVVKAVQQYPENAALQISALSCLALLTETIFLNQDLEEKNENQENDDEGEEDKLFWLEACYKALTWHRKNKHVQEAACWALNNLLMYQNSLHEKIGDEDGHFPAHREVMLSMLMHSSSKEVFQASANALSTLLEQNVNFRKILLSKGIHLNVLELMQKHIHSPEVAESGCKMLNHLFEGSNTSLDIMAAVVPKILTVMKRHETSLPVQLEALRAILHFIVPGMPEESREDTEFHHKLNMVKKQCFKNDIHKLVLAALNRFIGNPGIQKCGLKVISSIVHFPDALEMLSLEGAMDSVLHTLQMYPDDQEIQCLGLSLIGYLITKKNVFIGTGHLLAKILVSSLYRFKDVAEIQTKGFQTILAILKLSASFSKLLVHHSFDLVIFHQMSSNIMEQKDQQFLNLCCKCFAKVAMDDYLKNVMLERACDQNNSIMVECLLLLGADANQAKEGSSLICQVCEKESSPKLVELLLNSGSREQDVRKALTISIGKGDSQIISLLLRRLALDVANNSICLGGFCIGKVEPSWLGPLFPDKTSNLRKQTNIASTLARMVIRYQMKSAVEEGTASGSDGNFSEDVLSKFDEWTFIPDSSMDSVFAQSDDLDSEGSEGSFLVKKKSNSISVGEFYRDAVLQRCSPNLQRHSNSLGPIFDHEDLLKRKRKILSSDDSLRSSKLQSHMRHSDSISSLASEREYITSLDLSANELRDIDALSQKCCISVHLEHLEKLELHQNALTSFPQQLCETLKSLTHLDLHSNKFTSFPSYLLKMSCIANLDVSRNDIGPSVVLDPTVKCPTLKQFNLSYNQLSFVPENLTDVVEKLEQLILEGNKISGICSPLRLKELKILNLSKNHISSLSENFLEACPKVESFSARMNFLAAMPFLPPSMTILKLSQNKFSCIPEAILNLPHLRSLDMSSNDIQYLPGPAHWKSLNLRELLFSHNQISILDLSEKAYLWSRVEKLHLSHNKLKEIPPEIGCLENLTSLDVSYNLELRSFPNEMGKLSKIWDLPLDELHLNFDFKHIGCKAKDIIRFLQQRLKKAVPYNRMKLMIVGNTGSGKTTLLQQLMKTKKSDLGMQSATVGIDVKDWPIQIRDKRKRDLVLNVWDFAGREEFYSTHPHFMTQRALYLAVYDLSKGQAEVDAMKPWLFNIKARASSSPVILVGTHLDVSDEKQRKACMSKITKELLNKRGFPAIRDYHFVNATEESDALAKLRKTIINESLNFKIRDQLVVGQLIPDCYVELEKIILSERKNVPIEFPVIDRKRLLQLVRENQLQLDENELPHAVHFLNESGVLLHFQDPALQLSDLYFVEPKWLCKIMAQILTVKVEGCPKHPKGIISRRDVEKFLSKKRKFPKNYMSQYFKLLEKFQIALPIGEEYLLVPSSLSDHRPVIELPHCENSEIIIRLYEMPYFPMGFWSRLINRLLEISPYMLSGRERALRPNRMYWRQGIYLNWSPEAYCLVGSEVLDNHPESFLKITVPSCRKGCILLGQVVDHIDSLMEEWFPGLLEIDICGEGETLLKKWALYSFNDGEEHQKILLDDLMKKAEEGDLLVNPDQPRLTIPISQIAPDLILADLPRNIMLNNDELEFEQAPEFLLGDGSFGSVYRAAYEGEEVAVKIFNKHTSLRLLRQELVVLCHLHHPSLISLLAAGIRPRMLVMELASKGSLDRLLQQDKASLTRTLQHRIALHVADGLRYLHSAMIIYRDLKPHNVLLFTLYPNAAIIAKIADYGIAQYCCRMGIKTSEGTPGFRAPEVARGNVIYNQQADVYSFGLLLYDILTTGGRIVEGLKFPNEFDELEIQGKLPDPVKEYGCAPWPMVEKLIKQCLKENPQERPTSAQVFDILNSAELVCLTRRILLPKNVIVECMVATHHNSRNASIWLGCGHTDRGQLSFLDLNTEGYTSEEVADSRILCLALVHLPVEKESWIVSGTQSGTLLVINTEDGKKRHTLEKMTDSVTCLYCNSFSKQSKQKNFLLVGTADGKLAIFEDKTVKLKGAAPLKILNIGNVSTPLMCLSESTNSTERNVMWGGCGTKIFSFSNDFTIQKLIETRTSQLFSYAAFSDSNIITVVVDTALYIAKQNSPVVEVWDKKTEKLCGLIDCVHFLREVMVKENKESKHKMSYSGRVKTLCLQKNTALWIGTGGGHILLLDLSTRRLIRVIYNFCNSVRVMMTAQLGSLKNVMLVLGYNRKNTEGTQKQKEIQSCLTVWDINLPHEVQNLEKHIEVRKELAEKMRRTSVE
T1 sequence (Q5S007 with tags, fused parts or gaps R50H): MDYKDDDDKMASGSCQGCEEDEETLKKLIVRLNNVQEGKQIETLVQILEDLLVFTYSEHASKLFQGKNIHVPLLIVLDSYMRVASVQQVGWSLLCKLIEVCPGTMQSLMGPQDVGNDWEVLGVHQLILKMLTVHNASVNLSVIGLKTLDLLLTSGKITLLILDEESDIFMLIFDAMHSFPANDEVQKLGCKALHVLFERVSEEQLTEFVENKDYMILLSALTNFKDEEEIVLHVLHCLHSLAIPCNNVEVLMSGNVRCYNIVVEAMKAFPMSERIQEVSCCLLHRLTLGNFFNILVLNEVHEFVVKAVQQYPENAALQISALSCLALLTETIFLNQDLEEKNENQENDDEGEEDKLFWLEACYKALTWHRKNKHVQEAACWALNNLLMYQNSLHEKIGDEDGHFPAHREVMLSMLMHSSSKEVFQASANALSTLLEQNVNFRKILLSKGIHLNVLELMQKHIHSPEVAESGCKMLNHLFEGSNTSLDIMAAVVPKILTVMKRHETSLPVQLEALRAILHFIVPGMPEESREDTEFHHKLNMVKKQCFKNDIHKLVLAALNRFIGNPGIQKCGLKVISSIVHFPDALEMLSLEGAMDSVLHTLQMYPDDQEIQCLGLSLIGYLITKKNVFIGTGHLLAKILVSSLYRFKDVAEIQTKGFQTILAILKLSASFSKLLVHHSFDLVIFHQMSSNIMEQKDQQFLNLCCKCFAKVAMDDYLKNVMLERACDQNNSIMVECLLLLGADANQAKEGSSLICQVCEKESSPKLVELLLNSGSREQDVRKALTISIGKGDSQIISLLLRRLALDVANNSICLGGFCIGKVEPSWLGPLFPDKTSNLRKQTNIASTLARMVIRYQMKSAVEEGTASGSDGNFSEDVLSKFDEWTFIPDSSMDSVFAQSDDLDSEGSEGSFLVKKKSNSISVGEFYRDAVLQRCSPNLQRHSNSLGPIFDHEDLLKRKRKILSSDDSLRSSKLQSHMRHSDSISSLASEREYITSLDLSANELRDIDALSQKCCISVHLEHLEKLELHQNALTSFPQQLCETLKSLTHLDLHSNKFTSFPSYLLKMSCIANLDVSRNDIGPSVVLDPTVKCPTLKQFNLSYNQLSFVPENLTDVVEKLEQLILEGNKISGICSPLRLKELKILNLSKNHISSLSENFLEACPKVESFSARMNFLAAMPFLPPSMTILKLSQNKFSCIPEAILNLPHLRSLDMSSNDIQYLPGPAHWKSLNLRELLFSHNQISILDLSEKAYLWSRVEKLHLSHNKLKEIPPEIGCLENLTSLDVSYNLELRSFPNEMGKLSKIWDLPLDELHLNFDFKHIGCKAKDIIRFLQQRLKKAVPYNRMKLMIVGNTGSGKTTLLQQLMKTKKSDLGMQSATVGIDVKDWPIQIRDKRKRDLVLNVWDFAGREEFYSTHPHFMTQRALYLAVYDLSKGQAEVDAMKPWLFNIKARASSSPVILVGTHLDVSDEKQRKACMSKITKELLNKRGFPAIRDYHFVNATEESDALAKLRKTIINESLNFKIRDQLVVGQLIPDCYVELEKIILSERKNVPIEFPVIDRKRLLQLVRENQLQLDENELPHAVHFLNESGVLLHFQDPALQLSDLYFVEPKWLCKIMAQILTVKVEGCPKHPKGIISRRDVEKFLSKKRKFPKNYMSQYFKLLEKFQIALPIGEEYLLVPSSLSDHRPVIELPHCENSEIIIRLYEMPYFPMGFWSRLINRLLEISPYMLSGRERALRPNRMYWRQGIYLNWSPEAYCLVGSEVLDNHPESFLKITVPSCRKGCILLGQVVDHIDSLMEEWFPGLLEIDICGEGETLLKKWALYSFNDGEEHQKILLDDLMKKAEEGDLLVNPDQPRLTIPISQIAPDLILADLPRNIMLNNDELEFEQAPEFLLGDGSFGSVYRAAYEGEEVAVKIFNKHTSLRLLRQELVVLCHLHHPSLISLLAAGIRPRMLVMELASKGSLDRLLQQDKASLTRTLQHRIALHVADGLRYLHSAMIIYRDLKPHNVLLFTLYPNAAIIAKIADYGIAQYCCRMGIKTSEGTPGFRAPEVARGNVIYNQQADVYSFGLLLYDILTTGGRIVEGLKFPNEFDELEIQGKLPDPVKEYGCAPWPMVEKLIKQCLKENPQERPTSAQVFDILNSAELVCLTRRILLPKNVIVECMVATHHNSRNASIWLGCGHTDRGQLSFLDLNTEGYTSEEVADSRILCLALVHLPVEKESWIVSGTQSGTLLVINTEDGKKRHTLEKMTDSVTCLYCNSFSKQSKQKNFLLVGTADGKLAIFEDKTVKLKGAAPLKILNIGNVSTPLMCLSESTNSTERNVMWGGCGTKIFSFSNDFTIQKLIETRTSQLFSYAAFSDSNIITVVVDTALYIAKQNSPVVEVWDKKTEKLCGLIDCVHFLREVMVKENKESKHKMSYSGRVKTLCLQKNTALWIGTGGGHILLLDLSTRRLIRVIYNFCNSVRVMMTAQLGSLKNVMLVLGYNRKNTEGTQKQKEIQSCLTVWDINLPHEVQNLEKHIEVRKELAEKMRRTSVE

IC50 [1]	IC50 [2]	SMILES
≤ 100 nM	≤ 1000 nM	Cc1nc(N2C[C@]3(CO)C[C@H]2CO3)cc(-n2ncc3cc(C)c(C4CCN([C@H]5CCOC5)CC4)cc32)n1 [Example E143, ((1S,4S)-5-(2-methyl-6-(5-methyl-6-(1-((S)-tetrahydrofuran-3-yl)piperidin-4-yl)-1H-indazol-1-yl)pyrimidin-4-yl)-2-oxa-5-azabicyclo[2.2.1]heptan-1-yl)methanol]
≤ 100 nM	≤ 10 nM	COc1nc(N2C[C@H]3C[C@@H]2CO3)cc(-n2ncc3cc(C)c(C4CCN(CCC(=O)O)CC4F)cc32)n1 (single isomer, unassigned) [Example E158]
≤ 100 nM	≤ 1000 nM	COc1nc(N2C[C@H]3C[C@@H]2CO3)cc(-n2ncc3cc(C)c(C4CCN(CCC(=O)O)CC4)cc32)n1 [Example E164, 3-(4-(1-(6-((1R,4R)-2-oxa-5-azabicyclo[2.2.1]heptan-5-yl)-2-methoxypyrimidin-4-yl)-5-methyl-1H-indazol-6-yl)piperidin-1-yl)propanoic Acid]
≤ 100 nM	≤ 1000 nM	Cc1nc(N2C[C@H]3C[C@@H]2CO3)cc(-n2ncc3cc(C)c(C4CCN(CCC(=O)O)CC4)cc32)n1 [Example E162, 3-(4-(1-(6-((1R,4R)-2-oxa-5-azabicyclo[2.2.1]heptan-5-yl)-2-methylpyrimidin-4-yl)-5-methyl-1H-indazol-6-yl)piperidin-1-yl)propanoic Acid]
≤ 100 nM	≤ 10 nM	COc1nc(N2C[C@H]3C[C@@H]2CO3)cc(-n2ncc3cc(C)c(C4CCN(CCS(C)(=O)=O)CC4)cc32)n1 [Example E174, (1R,4R)-5-(2-methoxy-6-(5-methyl-6-(1-(2-(methylsulfonyl)ethyl)piperidin-4-yl)-1H-indazol-1-yl)pyrimidin-4-yl)-2-oxa-5-azabicyclo[2.2.1]heptane]
≤ 100 nM	≤ 1000 nM	COc1nc(N2C[C@H]3C[C@@H]2CO3)cc(-n2ncc3cc(C)c(C4C5CN([C@H]6CCOC6)CC54)cc32)n1 (stereo partly drawn) [Example E175, (1R,4R)-5-(2-methoxy-6-(5-methyl-6-(3-((S)-tetrahydrofuran-3-yl)-3-azabicyclo[3.1.0]hexan-6-yl)-1H-indazol-1-yl)pyrimidin-4-yl)-2-oxa-5-azabicyclo[2.2.1]heptane]
≤ 100 nM	≤ 1000 nM	Cc1nc(N2CC3OCC2C3O)cc(-n2ncc3cc(C)c(C4CCN([C@H]5CCOC5)CC4)cc32)n1 (single isomer, unassigned) [Example E176, TFA Salt]
≤ 10 nM	≤ 10 nM	COc1nc(N2C[C@@]3(CO)C[C@@H]2CO3)cc(-n2ncc3cc(C)c(C4CCOCC4)cc32)n1 [Example E178, ((1R,4R)-5-(2-methoxy-6-(5-methyl-6-(tetrahydro-2H-pyran-4-yl)-1H-indazol-1-yl)pyrimidin-4-yl)-2-oxa-5-azabicyclo[2.2.1]heptan-1-yl)methanol]
≤ 100 nM	≤ 10 nM	COc1nc(N2C[C@@H]3C[C@H]2CO3)cc(-n2ncc3cc(C)c(C4CCN(CCC(=O)O)CC4F)cc32)n1 (single isomer, unassigned) [Example E160]
≤ 10 nM	≤ 10 nM	COc1nc(N2CC3(CO)CC2CO3)cc(-n2ncc3cc(C)c(C4CCN(C5COC5)CC4)cc32)n1 (centres unmarked) [Example E167, (5-(2-methoxy-6-(5-methyl-6-(1-(oxetan-3-yl)piperidin-4-yl)-1H-indazol-1-yl)pyrim-idin-4-yl)-2-oxa-5-azabicyclo[2.2.1]heptan-1-yl)methanol]
